Laboratory results reported in patent US20210284668A1, “GOLD (I)-PHOSPHINE 1,2,3-TRIAZOLE DERIVATIVES WITH ANTIBIOTIC PROPERTIES” (Centre National de la Recherche Scientifique, priority 2018, published 2021).
Values joined by “and” are separate entries in the source; they are usually repeats but may differ in a detail not shown here. Equal entries are not always repeated.

Tests used:
E. faecalis UCN41 = test: MIC by microdilution, E. faecalis UCN41; type: cell-based, Enterococcus faecalis; set-up: unit not given here; settings: E. faecalis UCN41 (VanA positive, glycopeptide resistant), in duplicate
Experimental: (§1) The antibacterial profile of each derivative was evaluated by the standard microdilution method for susceptibility testing on 16 different strains, following the guidelines of CLSI. The selected panel included: • S. aureus ATCC25923 (MecA negative, wild-type) • S. aureus ATCC29213 (MecA negative, wild-type) • S. aureus ATCC700699 (MecA positive, glycopeptide resistant) • S. aureus ST20131365 (MecA positive, glycopeptide resistant) • S. epidermidis ATCC14990 (MecA negative, wild-type) • S. epidermidis ATCC35984 (MecA positive) • S. epidermidis ST20140436 (MecA positive, glycopeptide resistant) • S. epidermidis ST20150446 (MecA positive, glycopeptide resistant) • E. faecalis JH2-2 (wild-type) • E. faecalis UCN41 (VanA positive, glycopeptide resistant) • E. faecalis V583 (VanB positive, glycopeptide resistant) • E. faecium ATCC19434T (wild-type) • E. faecium BM4147 (VanA positive, glycopeptide resistant) • E. faecium AUS0004 (VanB positive, glycopeptide resistant) • E. coli ATCC25922 (wild-type) • Clostridium difficile ATCC9689 (wild-type)
(§2) Both series issued from the SAR study were evaluated for their antibacterial activity on a panel of characterized strains obtained from the French National Reference Centers for Staphylococci (Lyon, Pr. Fréderique Laurent) and for Enterococci (Caen, Pr. Vincent Cattoir), respectively. As shown in the following tables, both series contain very active compounds on multi-resistant Gram-positive bacteria (Minimal Inhibitory Concentrations lower than comparator antibiotic ampicillin). Furthermore, a very important antibacterial effect has been shown too on a strain of Clostridium difficile, a Gram-positive, spore-forming, bacillus responsible for post-antibiotic diarrhoae.
(§3) The antibacterial activity of test compounds was evaluated on a selected panel of Gram-positive (4 Staphylococcus aureus, 4 Staphylococcus epidermidis, 3 Enterococcus faecalis, 3 Enterococcus faecium, 1 Clostridium difficile) and Gram-negative strains (1 Escherichia coli, 1 Klebsiella pneumoniae, 1 Pseudomonas aeruginosa, 1 Acinetacter baumannii) with known features of antibiotic resistance (from wild-type susceptibility to multi-drug resistance). The Minimal Inhibitory Concentration (MIC) of test compounds was determined in duplicate by the microdilution method in 96-well microplates with a final volume of 100 μL per well and Mueller-Hinton broth as the growth medium, as recommended by the CLSI (Clinical and Laboratory Standards Institute, document Mo7-A10, USA).

[1] = tested on: Clostridium difficile ATCC700057; test: MIC by microdilution, Clostridium difficile; type: cell-based; settings: strain ATCC70057 [sic] (Tables 1-2) / ATCC700057 (Tables 3-10), in duplicate
E. faecium BM4147 = test: MIC by microdilution, E. faecium BM4147; type: cell-based, Enterococcus faecium; set-up: unit not given here; settings: E. faecium BM4147 (VanA positive, glycopeptide resistant), in duplicate
Experimental: as §1, §2, §3

S. aureus ATCC25923 = test: MIC by microdilution, S. aureus ATCC25923; type: cell-based, Staphylococcus aureus; settings: S. aureus ATCC25923 (MecA negative, wild-type), Mueller-Hinton broth, in duplicate
Experimental: as §1, §2, §3

[2] = tested on: S. epidermidis ST20140436; test: MIC by microdilution, S. epidermidis ST20140436; type: cell-based, Staphylococcus epidermidis; settings: S. epidermidis ST20140436 (MecA positive, glycopeptide resistant), in duplicate
Experimental: as §1, §2, §3

S. epidermidis ATCC35984 = test: MIC by microdilution, S. epidermidis ATCC35984; type: cell-based, Staphylococcus epidermidis; settings: S. epidermidis ATCC35984 (MecA positive), in duplicate
Experimental: as §1, §2, §3

S. aureus ST20131365 = test: MIC by microdilution, S. aureus ST20131365; type: cell-based, Staphylococcus aureus; settings: S. aureus ST20131365 (MecA positive, glycopeptide resistant), in duplicate
Experimental: as §1, §2, §3

S. epidermidis ATCC14990 = test: MIC by microdilution, S. epidermidis ATCC14990; type: cell-based, Staphylococcus epidermidis; settings: S. epidermidis ATCC14990 (MecA negative, wild-type), in duplicate
Experimental: as §1, §2, §3

S. aureus ATCC29213 = test: MIC by microdilution, S. aureus ATCC29213; type: cell-based, Staphylococcus aureus; settings: S. aureus ATCC29213 (MecA negative, wild-type), Mueller-Hinton broth, in duplicate
Experimental: as §1, §2, §3

S. aureus ATCC700699 = test: MIC by microdilution, S. aureus ATCC700699; type: cell-based, Staphylococcus aureus; set-up: unit not given here; settings: S. aureus ATCC700699 (MecA positive, glycopeptide resistant), in duplicate
Experimental: as §1, §2, §3

E. faecium AUS0004 = test: MIC by microdilution, E. faecium AUS0004; type: cell-based, Enterococcus faecium; settings: E. faecium AUS0004 (VanB positive, glycopeptide resistant), in duplicate
Experimental: as §1, §2, §3

E. faecalis V583 = test: MIC by microdilution, E. faecalis V583; type: cell-based, Enterococcus faecalis; settings: E. faecalis V583 (VanB positive, glycopeptide resistant), in duplicate
Experimental: as §1, §2, §3

E. faecium ATCC19434T = test: MIC by microdilution, E. faecium ATCC19434T; type: cell-based, Enterococcus faecium; set-up: unit not given here; settings: E. faecium ATCC19434T (wild-type), in duplicate
Experimental: as §1, §2, §3

E. faecalis JH2-2 = test: MIC by microdilution, E. faecalis JH2-2; type: cell-based, Enterococcus faecalis; set-up: unit not given here; settings: E. faecalis JH2-2 (wild-type), in duplicate
Experimental: as §1, §2, §3

[3] = tested on: panel of Gram-positive and Gram-negative strains; test: Antibacterial profile on the selected panel of strains; type: cell-based; settings: summary of Tables 1-12
Experimental: as §1, §2, §3

E. coli ATCC25922 = test: MIC by microdilution, E. coli ATCC25922; type: cell-based, Escherichia coli; settings: E. coli ATCC25922 (wild-type), in duplicate
Experimental: as §1, §2, §3

[4] = tested on: S. epidermidis ST20150446; test: MIC by microdilution, S. epidermidis ST20150446; type: cell-based, Staphylococcus epidermidis; settings: S. epidermidis ST20150446 (MecA positive, glycopeptide resistant), in duplicate
Experimental: as §1, §2, §3

| SMILES | Minimal Inhibitory Concentration (MIC) (E. faecalis UCN41) | Minimal Inhibitory Concentration (MIC) [1] | Minimal Inhibitory Concentration (MIC) (E. faecium BM4147) | Minimal Inhibitory Concentration (MIC) (S. aureus ATCC25923) | Minimal Inhibitory Concentration (MIC) [2] | Minimal Inhibitory Concentration (MIC) (S. epidermidis ATCC35984) | Minimal Inhibitory Concentration (MIC) (S. aureus ST20131365) | Minimal Inhibitory Concentration (MIC) (S. epidermidis ATCC14990) | Minimal Inhibitory Concentration (MIC) (S. aureus ATCC29213) | Minimal Inhibitory Concentration (MIC) (S. aureus ATCC700699) | Minimal Inhibitory Concentration (MIC) (E. faecium AUS0004) | Minimal Inhibitory Concentration (MIC) (E. faecalis V583) | Minimal Inhibitory Concentration (MIC) (E. faecium ATCC19434T) | Minimal Inhibitory Concentration (MIC) (E. faecalis JH2-2) | antimicrobial / antibacterial activity (in words) [3] | Minimal Inhibitory Concentration (MIC) (E. coli ATCC25922) | Minimal Inhibitory Concentration (MIC) [4] |
| --- | --- | --- | --- | --- | --- | --- | --- | --- | --- | --- | --- | --- | --- | --- | --- | --- | --- |
| CC[P+](CC)(CC)[Au-][c]1nn[nH]c1COC(=O)N[C@H](CC(=O)O)C(=O)O [TMB29] | 0.25 | ≤0.06 | 0.25 and 0.5 | 0.125 | ≤0.06 | ≤0.06 | 0.125 | ≤0.06 | 0.125 | 0.125 | 0.5 | 0.25 | 0.25 | 0.25 | have antimicrobial activity | >8 | – |
| CC[P+](CC)(CC)[Au-][c]1nn[nH]c1-c1ccc(C(=O)O)cc1 [TMB14] | 0.5 and 1 | 0.125 | 0.5 | 0.125 | – | ≤0.06 | 0.125 and 0.25 | ≤0.06 | 0.125 | 0.125 | 0.5 | 1 | 0.5 | 0.5 | have antimicrobial activity | >8 | – |
| CC[P+](CC)(CC)[Au-][c]1nn[nH]c1C1CCC(C(=O)O)CC1 (centres unmarked) [TMB25] | 0.125 | ≤0.06 | 0.125 | – | – | ≤0.06 | – | ≤0.06 | 0.25 | 0.25 | 0.125 | 0.125 | 0.125 | 0.125 | have antimicrobial activity | >8 | 0.125 and 0.25 |
| CC[P+](CC)(CC)[Au-][c]1nn[nH]c1-c1cn[nH]c1 [TMB31] | 0.25 | ≤0.06 | 0.25 | ≤0.06 | ≤0.06 | ≤0.06 | – | ≤0.06 | ≤0.06 | 0.125 | 0.25 | 0.25 | 0.25 | 0.25 | have antimicrobial activity | >8 | ≤0.06 |
| CC[P+](CC)(CC)[Au-][c]1nn[nH]c1-c1ccc(C(=O)NC(C(=O)O)c2ccccc2)cc1 (centres unmarked) [TMB23] | 0.125 | ≤0.06 | 0.25 and 0.5 | ≤0.06 | – | – | 0.125 | ≤0.06 | 0.125 | 0.125 | 0.25 | 0.125 and 0.25 | 0.25 | 0.25 | have antimicrobial activity | >8 | ≤0.06 |
| O=C(CCc1cnn[nH]1)N[C@@H](C(=O)O)c1ccccc1 [TMB46] | >8 | >8 | >8 | >8 | >8 | >8 | >8 | >8 | >8 | >8 | >8 | >8 | >8 | >8 | do not show an antibacterial activity | – | >8 |
| CC[P+](CC)(CC)[Au-][c]1nn[nH]c1CNC(=O)CCCC[C@@H]1SC[C@@H]2NC(=O)N[C@@H]21 [TMB42] | 1 | 0.25 | 0.5 | 0.125 | ≤0.06 | ≤0.06 | 0.25 | ≤0.06 | 0.25 | 0.25 | 0.5 | 1 | 0.25 | 0.25 | have antimicrobial activity | – | ≤0.06 |
| CC[P+](CC)(CC)[Au-][c]1nn[nH]c1-c1ccc(C(=O)NC(C(=O)NC2C(=O)N3C2SC(C)(C)C3C(=O)O)c2ccccc2)cc1 (centres unmarked) [TMB22] | 1 | ≤0.06 | 1 | 0.125 | – | – | 0.25 | ≤0.06 | 0.125 | 0.125 and 0.25 | 1 | 0.5 | 1 | 0.5 | have antimicrobial activity | >8 | – |
